From publication PMC11481179, “Development and Application of Reversible and Irreversible Covalent Probes for Human and Mouse Cathepsin‐K Activity Detection, Revealing Nuclear Activity” (Advanced Science, 2024)

Key:
[1] = test system: Jurkat cells; test: Cathepsin labeling in intact Jurkat cells that lack mature CTSK, fluorescent SDS-PAGE; assay type: cell-based, human; conditions: probe 5 µM, up to 24 h
Method: To further corroborate the selectivity of GD32, we tested the labeling of Jurkat cells, which lack mature CTSK. Intact cells were incubated with the probe for different durations up to 24 h before they were lysed and analyzed by fluorescent SDS‐PAGE. […] These findings led us to select GD32 as a lead compound for further investigation of CTSK's activity and location in different biological and medical samples. page 8: Figure S7. Cathepsin labeling in intact Jurkat cells that lack mature CTSK. Jurkat cells were treated with GD32 or GB123 (5 µM) in a culture medium for different durations up to 24 h, followed by cell lysis, and fluorescent SDS-PAGE analysis. […] The gel was analyzed by western blot with anti CTSK antibody. While pro-CTSK is detected, indicated by the black arrow, the mature CTSK is not detected. (1 picture or pasted object on this page, not shown here)

[2] = biological target: T1, CTSK (Homo sapiens, UniProt P43235); test: Recombinant cathepsin labeling by ABPs, in-gel fluorescence; assay type: binding; conditions: ABP 5 µM, 1 h, 37 °C, pH 5.5, CTSK 0.5–280 ng
T1 sequence (P43235 115-329): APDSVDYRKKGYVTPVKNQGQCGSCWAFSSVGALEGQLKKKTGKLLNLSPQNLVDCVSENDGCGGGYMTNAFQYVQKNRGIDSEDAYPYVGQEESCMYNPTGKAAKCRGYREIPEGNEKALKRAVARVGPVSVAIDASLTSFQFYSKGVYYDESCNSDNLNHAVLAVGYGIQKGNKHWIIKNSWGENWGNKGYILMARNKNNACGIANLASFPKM
Method: The ABPs were tested for binding to recombinant CTSK compared to the closely related CTSB, CTSL, and CTSS, which are highly abundant and active in most biological samples. Using the in‐gel fluorescent analysis that detects the stable enzyme‐probe complex, active CTSK was labeled with each of the four probes, and significant selectivity was found in three probes GD32, GD37, and GD42 (Figure 1a). […] However, the minimum amount of active CTSK the remaining probes detected was much higher, ranging from 8 to 70 ngs, (Figure 1b).
Figure 1 In vitro evaluation of CTSK targeted compounds. a) Labeling of recombinant cathepsins by ABPs. Recombinant cathepsins were treated with increasing concentrations of ABPs for 1 h. Samples were separated by SDS‐PAGE and scanned for fluorescence by a Typhoon scanner at 635/670 nm. All probes show dose‐dependent binding to the CTSK, and have lower affinity to CTSS except GD36, b) CTSK [0.5–280 ng] was labeled with the indicated ABPs [5 µM]. Incubations were performed for 1 h at 37 °C, at pH 5.5. Samples were analyzed as described in (a). c) Recombinant cathepsins B, K, L, and S [0.5 µM] were first treated with the indicated concentrations of the inhibitor GD30 or vehicle for 1 h followed by incubation with a pan cathepsin probe GB123 [1 µM] for 1 h. Samples were analyzed as described in (a). d) Quantitative analysis of CTSK inhibition by GD30 presented in (d), data represent mean values ± standard error, n = 3. e) IC50 plot of GD30 inhibition of CTSK activity. […]
emission wavelengths of 370 and 460 nm, respectively. Cathepsin concentrations in the assay were 0.4 nM (CTSK) or 5 nM (CTSS, CTSB, and CTSL). […] For irreversible inhibitors, reaction data were fitted to the one-phase association formula in GraphPad Prism 9 software: Y=Y0 + (Plateau-Y0)*(1-exp(-K*X)) where in this case Y0 and Y represent fluorescence signal at times 0 and t, respectively, K represent the observed reaction rate kobs and X the inhibitor concentration. […]
reaction was stopped and samples were analyzed as described above. […]

minimum amount of active CTSK detected [2]: 0.5 ng
Structure (SMILES): C#CCNC(=O)[C@H](CC(C)C)N[C@@H](c1ccc(-c2ccc(S(=O)(=O)CCNC(=O)CCCCC[N+]3=C(/C=C/C=C/C=C4/N(C)c5ccc(S(=O)(=O)O)cc5C4(C)C)C(C)(C)c4cc(S(=O)(=O)O)ccc43)cc2)cc1)C(F)(F)F [GD32]
fluorescent bands after labeling [1]: no fluorescent bands were detected
